Results: PubChem BioAssay AID342 (DTP/NCI, 2004)
Where “and” joins values, the source holds several entries; their conditions need not be identical. Identical values can stand only once.

Test system: Swiss mice, Sarcoma 180 sc, mean tumor weight T/C
Experiment: NCI In Vivo Anticancer Drug Screen. Data for tumor model Sarcoma 180 (subcutaneous) in Swiss mice
Conditions: endpoint: mean tumor weight, higher = larger tumour
Outline: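 Readout is the ratio of treated-group measurement to vehicle-control measurement (T/C), based on survival or tumor size in mice carrying transplanted tumors.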

With OCC(F)(F)C(F)(F)C(F)(F)F the T/C (dose: 222.0 mg/kg/injection, schedule: Q01DX007 (ip), vehicle: other) was 56 % of control, the T/C (dose: 250.0 mg/kg/injection, schedule: Q01DX007 (ip), vehicle: saline) was 74 % of control and the T/C (dose: 333.0 mg/kg/injection, schedule: Q01DX007 (ip), vehicle: other) was 82 % of control. For the same compound, the T/C (dose: 500.0 mg/kg/injection, schedule: Q01DX007 (ip), vehicle: other) was 56 % of control and the T/C (dose: 750.0 mg/kg/injection, schedule: Q01DX007 (ip), vehicle: other) was 90 % of control.

With CC(=O)OCC(=O)[C@@]1(O)CC[C@H]2[C@@H]3C[C@@H](C)C4=CC(=O)C=C[C@]4(C)[C@H]3[C@@H](O)C[C@@]21C the T/C (dose: 32.0 mg/kg/injection, schedule: Q01DX007 (sc), vehicle: steriod suspending solution) was 51 % of control, the T/C (dose: 49.0 mg/kg/injection, schedule: Q01DX007 (sc), vehicle: steriod suspending solution) was 56 % of control and the T/C (dose: 73.0 mg/kg/injection, schedule: Q01DX007 (sc), vehicle: steriod suspending solution) was 40 % of control and 55 % of control. For the same compound, the T/C (dose: 109.0 mg/kg/injection, schedule: Q01DX007 (sc), vehicle: steriod suspending solution) was 48 % of control, the T/C (dose: 111.0 mg/kg/injection, schedule: Q01DX007 (sc), vehicle: steriod suspending solution) was 31 % of control and the T/C (dose: 165.0 mg/kg/injection, schedule: Q01DX007 (sc), vehicle: steriod suspending solution) was 36 % of control and 47 % of control. The T/C (dose: 248.0 mg/kg/injection, schedule: Q01DX007 (sc), vehicle: steriod suspending solution) was 35 % of control, the T/C (dose: 251.0 mg/kg/injection, schedule: Q01DX007 (sc), vehicle: steriod suspending solution) was 33 % of control and the T/C (dose: 375.0 mg/kg/injection, schedule: Q01DX007 (sc), vehicle: steriod suspending solution) was 31 % of control.

With C=CCOc1ccc2c(c1)CC[C@@H]1[C@@H]2CC[C@@]2(C)[C@H]1CC[C@]2(C)O the T/C (dose: 0.5 mg/kg/injection, schedule: Q#A X014 (sc), vehicle: steriod suspending solution) was 80 % of control, the T/C (dose: 5.0 mg/kg/injection, schedule: Q#A X014 (sc), vehicle: steriod suspending solution) was 116 % of control and the T/C (dose: 50.0 mg/kg/injection, schedule: Q#A X014 (sc), vehicle: steriod suspending solution) was 71 % of control.

With CN(C)c1nc(N(C)C)nc(N(C)C)n1 the T/C (dose: 7.34 mg/kg/injection, schedule: Q#A X014 (ip), vehicle: carboxymethylcellulose (CMC)) was 86 % of control, the T/C (dose: 14.67 mg/kg/injection, schedule: Q#A X014 (ip), vehicle: carboxymethylcellulose (CMC)) was 90 % of control and the T/C (dose: 22.5 mg/kg/injection, schedule: Q01DX007 (ip), vehicle: carboxymethylcellulose (CMC)) was 117 % of control. The T/C (dose: 23.45 mg/kg/injection, schedule: Q#A X014 (ip), vehicle: other) was 91 % of control, the T/C (dose: 25.0 mg/kg/injection, schedule: Q01DX007 (ip), vehicle: methylcellulose (MC)) was 64 % of control and the T/C (dose: 25.0 mg/kg/injection, schedule: Q01DX007 (oral), vehicle: carboxymethylcellulose (CMC)) was 58 % of control. For the same compound, the T/C (dose: 25.0 mg/kg/injection, schedule: Q01DX007 (oral), vehicle: methylcellulose (MC)) was 102 % of control, the T/C (dose: 29.35 mg/kg/injection, schedule: Q#A X014 (ip), vehicle: carboxymethylcellulose (CMC)) was 75 % of control and the T/C (dose: 29.35 mg/kg/injection, schedule: Q#A X014 (ip), vehicle: other) was 80 % of control. The T/C (dose: 31.25 mg/kg/injection, schedule: Q#A X014 (ip), vehicle: carboxymethylcellulose (CMC)) was 53 % of control, the T/C (dose: 39.1 mg/kg/injection, schedule: Q#A X014 (ip), vehicle: other) was 83 % of control and the T/C (dose: 45.0 mg/kg/injection, schedule: Q01DX007 (ip), vehicle: carboxymethylcellulose (CMC)) was 88 % of control. The T/C (dose: 46.9 mg/kg/injection, schedule: Q01DX007 (ip), vehicle: other) was 49 % of control, the T/C (dose: 50.0 mg/kg/injection, schedule: Q01DX007 (ip), vehicle: methylcellulose (MC)) was 61 % of control and the T/C (dose: 50.0 mg/kg/injection, schedule: Q01DX007 (oral), vehicle: carboxymethylcellulose (CMC)) was 87 % of control. For the same compound, the T/C (dose: 50.0 mg/kg/injection, schedule: Q01DX007 (oral), vehicle: methylcellulose (MC)) was 116 % of control, the T/C (dose: 58.7 mg/kg/injection, schedule: Q01DX007 (ip), vehicle: other) was 51 % of control and the T/C (dose: 58.7 mg/kg/injection, schedule: Q#A X014 (ip), vehicle: other) was 77 % of control. The T/C (dose: 62.5 mg/kg/injection, schedule: Q#A X014 (ip), vehicle: carboxymethylcellulose (CMC)) was 26 % of control, the T/C (dose: 78.2 mg/kg/injection, schedule: Q01DX007 (ip), vehicle: other) was 54 % of control and the T/C (dose: 90.0 mg/kg/injection, schedule: Q01DX007 (ip), vehicle: carboxymethylcellulose (CMC)) was 77 % of control. For the same compound, the T/C (dose: 100.0 mg/kg/injection, schedule: Q01DX007 (ip), vehicle: methylcellulose (MC)) was 75 % of control, the T/C (dose: 100.0 mg/kg/injection, schedule: Q01DX007 (oral), vehicle: carboxymethylcellulose (CMC)) was 67 % of control and the T/C (dose: 100.0 mg/kg/injection, schedule: Q01DX007 (oral), vehicle: methylcellulose (MC)) was 108 % of control. For the same compound, the T/C (dose: 117.4 mg/kg/injection, schedule: Q01DX007 (ip), vehicle: other) was 40 % of control, the T/C (dose: 200.0 mg/kg/injection, schedule: Q01DX007 (ip), vehicle: methylcellulose (MC)) was 94 % of control and the T/C (dose: 200.0 mg/kg/injection, schedule: Q01DX007 (oral), vehicle: carboxymethylcellulose (CMC)) was 57 % of control. For the same compound, the T/C (dose: 200.0 mg/kg/injection, schedule: Q01DX007 (oral), vehicle: methylcellulose (MC)) was 114 % of control.
